Results as given in ChEMBL document CHEMBL3832086, “DailyMed|setid=1c5502c7-7731-4d3e-b4fe-7fd44dd5908b | UROXATRAL - alfuzosin hydrochloride tablet, extended release|Physicians Total Care, Inc”.

What was measured:
[1] = Evaluation of absolute bioavailability of Alfuzosin hydrochloride following oral administration of 10 mg Alfuzosin hydrochloride tablets under fed conditions.; assay type: ADME, organism-based; settings: human, in vivo, at 10 mg, dietary status Fed, dosed compound id 46, dosed compound name ALFUZOSIN HYDROCHLORIDE, regimen Single dose, tissue Plasma
[2] = Evaluation of pharmacokinetic parameters for Alfuzosin hydrochloride following multiple oral or intravenous administration of Alfuzosin hydrochloride.; assay type: ADME, organism-based; design: dose 10 mg, route oral; settings: human, in vivo, dosed compound id 46, dosed compound name ALFUZOSIN HYDROCHLORIDE, regimen Multiple dose, tissue Plasma

- bioavailability [1]: 49%
- Cmax ([2]; po, 10 mg, dietary status Fed): 13.6 ng/mL
- AUC ([2]; po, 10 mg, dietary status Fed, read-out: AUC(0-24)): 194 ng·h/mL
- Tmax ([2]; dietary status Fed, dose 10 mg, route oral): 8 h
- half-life ([2]; dose 10 mg, route oral): 10 h
- Vd ([2]; gender male, route iv): 3.2 L/kg
SMILES: COc1cc2nc(N(C)CCCNC(=O)C3CCCO3)nc(N)c2cc1OC.Cl (stereo unspecified) [ALFUZOSIN HYDROCHLORIDE]
